Experimental data as given in the supplement of paper PMC10307832.

Columns and labels:
Assay in all cases: relative viability (nuclei count vs DMSO), 5 days (fraction); higher = more cells survive
Seliciclib + Trametinib = compound: CC[C@H](CO)Nc1nc(NCc2ccccc2)c2ncn(C(C)C)c2n1 [Seliciclib] + CC(=O)Nc1cccc(-n2c(=O)n(C3CC3)c(=O)c3c(Nc4ccc(I)cc4F)n(C)c(=O)c(C)c32)c1 [Trametinib] (partner 0.02 µM)
Procedure, shortened: (§1)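 Lung cancer cell lines, seeded in 1536-well plates, were treated the following day by pin tool with a single drug or with five library-drug doses (not always all listed) in √10 steps on top of a fixed anchor-drug dose. Cells were fixed and nuclei stained in one step after 5 days, and nuclei were counted. Relative viability is the nuclei count for treated wells divided by that for vehicle wells, reported as medians of duplicate plates.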

Seliciclib + OSI-027 = compound: CC[C@H](CO)Nc1nc(NCc2ccccc2)c2ncn(C(C)C)c2n1 [Seliciclib] + COc1cccc2cc(-c3nc([C@H]4CC[C@H](C(=O)O)CC4)n4ncnc(N)c34)[nH]c12 [OSI-027] (partner 0.5 µM)
Procedure, shortened: as §1

Seliciclib + Lapatinib = compound: CC[C@H](CO)Nc1nc(NCc2ccccc2)c2ncn(C(C)C)c2n1 [Seliciclib] + CS(=O)(=O)CCNCc1ccc(-c2ccc3ncnc(Nc4ccc(OCc5cccc(F)c5)c(Cl)c4)c3c2)o1 [Lapatinib] (partner 2 µM)
Procedure, shortened: as §1

Seliciclib + Linsitinib = compound: CC[C@H](CO)Nc1nc(NCc2ccccc2)c2ncn(C(C)C)c2n1 [Seliciclib] + C[C@]1(O)C[C@@H](c2nc(-c3ccc4ccc(-c5ccccc5)nc4c3)c3c(N)nccn32)C1 [Linsitinib] (partner 1 µM)
Procedure, shortened: as §1

Cell Line LXF-289 has a relative viability (Seliciclib + Trametinib; first compound 0.08 µM) of 0.65, a relative viability (Seliciclib + Trametinib; first compound 0.253 µM) of 0.725 and a relative viability (Seliciclib + Trametinib; first compound 0.8 µM) of 0.646. It also gave a relative viability (Seliciclib + Trametinib; first compound 2.53 µM) of 0.661, a relative viability (Seliciclib + Trametinib; first compound 8 µM) of 0.627 and a relative viability (Seliciclib + OSI-027; first compound 0.08 µM) of 0.781. For the same cell line, the relative viability (Seliciclib + OSI-027; first compound 0.253 µM) was 0.667, the relative viability (Seliciclib + OSI-027; first compound 0.8 µM) was 0.769 and the relative viability (Seliciclib + OSI-027; first compound 2.53 µM) was 0.421. It also gave a relative viability (Seliciclib + OSI-027; first compound 8 µM) of 0.762, a relative viability (Seliciclib + Lapatinib; first compound 0.08 µM) of 0.908 and a relative viability (Seliciclib + Lapatinib; first compound 0.253 µM) of 1.04. It also gave a relative viability (Seliciclib + Lapatinib; first compound 0.8 µM) of 0.806, a relative viability (Seliciclib + Lapatinib; first compound 2.53 µM) of 0.891 and a relative viability (Seliciclib + Lapatinib; first compound 8 µM) of 0.791. For the same cell line, the relative viability (Seliciclib + Linsitinib; first compound 0.08 µM) was 0.945, the relative viability (Seliciclib + Linsitinib; first compound 0.253 µM) was 1.03 and the relative viability (Seliciclib + Linsitinib; first compound 0.8 µM) was 0.908. The relative viability (Seliciclib + Linsitinib; first compound 2.53 µM) was 0.947 and the relative viability (Seliciclib + Linsitinib; first compound 8 µM) was 0.914.
NCI-H23 showed a relative viability (Seliciclib + Trametinib; first compound 0.08 µM) of 0.428, a relative viability (Seliciclib + Trametinib; first compound 0.253 µM) of 0.343 and a relative viability (Seliciclib + Trametinib; first compound 0.8 µM) of 0.406. The relative viability (Seliciclib + Trametinib; first compound 2.53 µM) was 0.297, the relative viability (Seliciclib + Trametinib; first compound 8 µM) was 0.308 and the relative viability (Seliciclib + OSI-027; first compound 0.08 µM) was 0.645. The relative viability (Seliciclib + OSI-027; first compound 0.253 µM) was 0.408, the relative viability (Seliciclib + OSI-027; first compound 0.8 µM) was 0.652 and the relative viability (Seliciclib + OSI-027; first compound 2.53 µM) was 0.267. For the same cell line, the relative viability (Seliciclib + OSI-027; first compound 8 µM) was 0.505, the relative viability (Seliciclib + Lapatinib; first compound 0.08 µM) was 0.97 and the relative viability (Seliciclib + Lapatinib; first compound 0.253 µM) was 1.08. For the same cell line, the relative viability (Seliciclib + Lapatinib; first compound 0.8 µM) was 1.19, the relative viability (Seliciclib + Lapatinib; first compound 2.53 µM) was 0.657 and the relative viability (Seliciclib + Lapatinib; first compound 8 µM) was 0.851. For the same cell line, the relative viability (Seliciclib + Linsitinib; first compound 0.08 µM) was 0.616, the relative viability (Seliciclib + Linsitinib; first compound 0.253 µM) was 0.392 and the relative viability (Seliciclib + Linsitinib; first compound 0.8 µM) was 0.505. For the same cell line, the relative viability (Seliciclib + Linsitinib; first compound 2.53 µM) was 0.599 and the relative viability (Seliciclib + Linsitinib; first compound 8 µM) was 0.419.
Cell Line NCI-H322M has a relative viability (Seliciclib + Trametinib; first compound 0.08 µM) of 0.536, a relative viability (Seliciclib + Trametinib; first compound 0.253 µM) of 0.487 and a relative viability (Seliciclib + Trametinib; first compound 0.8 µM) of 0.495. It also gave a relative viability (Seliciclib + Trametinib; first compound 2.53 µM) of 0.473, a relative viability (Seliciclib + Trametinib; first compound 8 µM) of 0.399 and a relative viability (Seliciclib + OSI-027; first compound 0.08 µM) of 0.561. The relative viability (Seliciclib + OSI-027; first compound 0.253 µM) was 0.482, the relative viability (Seliciclib + OSI-027; first compound 0.8 µM) was 0.516 and the relative viability (Seliciclib + OSI-027; first compound 2.53 µM) was 0.348. For the same cell line, the relative viability (Seliciclib + OSI-027; first compound 8 µM) was 0.43, the relative viability (Seliciclib + Lapatinib; first compound 0.08 µM) was 0.67 and the relative viability (Seliciclib + Lapatinib; first compound 0.253 µM) was 0.641. For the same cell line, the relative viability (Seliciclib + Lapatinib; first compound 0.8 µM) was 0.509, the relative viability (Seliciclib + Lapatinib; first compound 2.53 µM) was 0.443 and the relative viability (Seliciclib + Lapatinib; first compound 8 µM) was 0.457. It also gave a relative viability (Seliciclib + Linsitinib; first compound 0.08 µM) of 1.02, a relative viability (Seliciclib + Linsitinib; first compound 0.253 µM) of 0.932 and a relative viability (Seliciclib + Linsitinib; first compound 0.8 µM) of 1.05. The relative viability (Seliciclib + Linsitinib; first compound 2.53 µM) was 0.977 and the relative viability (Seliciclib + Linsitinib; first compound 8 µM) was 0.803.
With NCI-H358 the relative viability (Seliciclib + Trametinib; first compound 0.08 µM) was 0.137, the relative viability (Seliciclib + Trametinib; first compound 0.253 µM) was 0.124 and the relative viability (Seliciclib + Trametinib; first compound 0.8 µM) was 0.143. The relative viability (Seliciclib + Trametinib; first compound 2.53 µM) was 0.104, the relative viability (Seliciclib + Trametinib; first compound 8 µM) was 0.0859 and the relative viability (Seliciclib + OSI-027; first compound 0.08 µM) was 0.79. The relative viability (Seliciclib + OSI-027; first compound 0.253 µM) was 0.501, the relative viability (Seliciclib + OSI-027; first compound 0.8 µM) was 0.652 and the relative viability (Seliciclib + OSI-027; first compound 2.53 µM) was 0.58. For the same cell line, the relative viability (Seliciclib + OSI-027; first compound 8 µM) was 0.448, the relative viability (Seliciclib + Lapatinib; first compound 0.08 µM) was 0.429 and the relative viability (Seliciclib + Lapatinib; first compound 0.253 µM) was 0.5. The relative viability (Seliciclib + Lapatinib; first compound 0.8 µM) was 0.407, the relative viability (Seliciclib + Lapatinib; first compound 2.53 µM) was 0.305 and the relative viability (Seliciclib + Lapatinib; first compound 8 µM) was 0.253. It also gave a relative viability (Seliciclib + Linsitinib; first compound 0.08 µM) of 0.613, a relative viability (Seliciclib + Linsitinib; first compound 0.253 µM) of 0.634 and a relative viability (Seliciclib + Linsitinib; first compound 0.8 µM) of 0.617. For the same cell line, the relative viability (Seliciclib + Linsitinib; first compound 2.53 µM) was 0.609 and the relative viability (Seliciclib + Linsitinib; first compound 8 µM) was 0.445.
NCI-H460 was tested, and the relative viability (Seliciclib + Trametinib; first compound 0.08 µM) was 0.176, the relative viability (Seliciclib + Trametinib; first compound 0.253 µM) was 0.137 and the relative viability (Seliciclib + Trametinib; first compound 0.8 µM) was 0.132. For the same cell line, the relative viability (Seliciclib + Trametinib; first compound 2.53 µM) was 0.115, the relative viability (Seliciclib + Trametinib; first compound 8 µM) was 0.102 and the relative viability (Seliciclib + OSI-027; first compound 0.08 µM) was 0.706. It also gave a relative viability (Seliciclib + OSI-027; first compound 0.253 µM) of 0.601, a relative viability (Seliciclib + OSI-027; first compound 0.8 µM) of 0.672 and a relative viability (Seliciclib + OSI-027; first compound 2.53 µM) of 0.563. It also gave a relative viability (Seliciclib + OSI-027; first compound 8 µM) of 0.561, a relative viability (Seliciclib + Lapatinib; first compound 0.08 µM) of 0.895 and a relative viability (Seliciclib + Lapatinib; first compound 0.253 µM) of 1.04. It also gave a relative viability (Seliciclib + Lapatinib; first compound 0.8 µM) of 0.922, a relative viability (Seliciclib + Lapatinib; first compound 2.53 µM) of 1.34 and a relative viability (Seliciclib + Lapatinib; first compound 8 µM) of 0.826. The relative viability (Seliciclib + Linsitinib; first compound 0.08 µM) was 0.797, the relative viability (Seliciclib + Linsitinib; first compound 0.253 µM) was 0.795 and the relative viability (Seliciclib + Linsitinib; first compound 0.8 µM) was 0.75. For the same cell line, the relative viability (Seliciclib + Linsitinib; first compound 2.53 µM) was 1 and the relative viability (Seliciclib + Linsitinib; first compound 8 µM) was 0.637.
Cell Line NCI-H520 has a relative viability (Seliciclib + Trametinib; first compound 0.08 µM) of 0.617, a relative viability (Seliciclib + Trametinib; first compound 0.253 µM) of 0.411 and a relative viability (Seliciclib + Trametinib; first compound 0.8 µM) of 0.669. The relative viability (Seliciclib + Trametinib; first compound 2.53 µM) was 0.599, the relative viability (Seliciclib + Trametinib; first compound 8 µM) was 0.625 and the relative viability (Seliciclib + OSI-027; first compound 0.08 µM) was 0.275. The relative viability (Seliciclib + OSI-027; first compound 0.8 µM) was 0.324, the relative viability (Seliciclib + OSI-027; first compound 2.53 µM) was 0.277 and the relative viability (Seliciclib + OSI-027; first compound 8 µM) was 0.228. For the same cell line, the relative viability (Seliciclib + Lapatinib; first compound 0.08 µM) was 0.858, the relative viability (Seliciclib + Lapatinib; first compound 0.253 µM) was 0.727 and the relative viability (Seliciclib + Lapatinib; first compound 0.8 µM) was 0.831. The relative viability (Seliciclib + Lapatinib; first compound 2.53 µM) was 0.933, the relative viability (Seliciclib + Lapatinib; first compound 8 µM) was 0.674 and the relative viability (Seliciclib + Linsitinib; first compound 0.08 µM) was 0.954. The relative viability (Seliciclib + Linsitinib; first compound 0.253 µM) was 0.762, the relative viability (Seliciclib + Linsitinib; first compound 0.8 µM) was 0.924 and the relative viability (Seliciclib + Linsitinib; first compound 2.53 µM) was 0.949. The relative viability (Seliciclib + Linsitinib; first compound 8 µM) was 0.935.
Cell Line NCI-H596 has a relative viability (Seliciclib + Trametinib; first compound 0.08 µM) of 0.814, a relative viability (Seliciclib + Trametinib; first compound 0.8 µM) of 0.75 and a relative viability (Seliciclib + Trametinib; first compound 2.53 µM) of 0.837. For the same cell line, the relative viability (Seliciclib + Trametinib; first compound 8 µM) was 0.58, the relative viability (Seliciclib + OSI-027; first compound 0.08 µM) was 0.784 and the relative viability (Seliciclib + OSI-027; first compound 0.8 µM) was 0.607. The relative viability (Seliciclib + OSI-027; first compound 2.53 µM) was 0.812, the relative viability (Seliciclib + OSI-027; first compound 8 µM) was 0.657 and the relative viability (Seliciclib + Lapatinib; first compound 0.08 µM) was 0.969. The relative viability (Seliciclib + Lapatinib; first compound 0.253 µM) was 0.831, the relative viability (Seliciclib + Lapatinib; first compound 0.8 µM) was 1.1 and the relative viability (Seliciclib + Lapatinib; first compound 2.53 µM) was 1.21. The relative viability (Seliciclib + Lapatinib; first compound 8 µM) was 0.939, the relative viability (Seliciclib + Linsitinib; first compound 0.08 µM) was 1.09 and the relative viability (Seliciclib + Linsitinib; first compound 0.253 µM) was 0.636. The relative viability (Seliciclib + Linsitinib; first compound 0.8 µM) was 0.996, the relative viability (Seliciclib + Linsitinib; first compound 2.53 µM) was 1.12 and the relative viability (Seliciclib + Linsitinib; first compound 8 µM) was 1.1.
For NCI-H647, the relative viability (Seliciclib + Trametinib; first compound 0.08 µM) was 0.392, the relative viability (Seliciclib + Trametinib; first compound 0.253 µM) was 0.37 and the relative viability (Seliciclib + Trametinib; first compound 0.8 µM) was 0.427. The relative viability (Seliciclib + Trametinib; first compound 2.53 µM) was 0.512, the relative viability (Seliciclib + Trametinib; first compound 8 µM) was 0.508 and the relative viability (Seliciclib + OSI-027; first compound 0.08 µM) was 0.616. For the same cell line, the relative viability (Seliciclib + OSI-027; first compound 0.8 µM) was 0.652, the relative viability (Seliciclib + OSI-027; first compound 2.53 µM) was 0.552 and the relative viability (Seliciclib + OSI-027; first compound 8 µM) was 0.534. For the same cell line, the relative viability (Seliciclib + Lapatinib; first compound 0.08 µM) was 1.25, the relative viability (Seliciclib + Lapatinib; first compound 0.253 µM) was 1.11 and the relative viability (Seliciclib + Lapatinib; first compound 0.8 µM) was 1.07. It also gave a relative viability (Seliciclib + Lapatinib; first compound 2.53 µM) of 1.28, a relative viability (Seliciclib + Lapatinib; first compound 8 µM) of 1.01 and a relative viability (Seliciclib + Linsitinib; first compound 0.08 µM) of 1.22. For the same cell line, the relative viability (Seliciclib + Linsitinib; first compound 0.253 µM) was 1.12, the relative viability (Seliciclib + Linsitinib; first compound 0.8 µM) was 1.11 and the relative viability (Seliciclib + Linsitinib; first compound 2.53 µM) was 1.19. For the same cell line, the relative viability (Seliciclib + Linsitinib; first compound 8 µM) was 0.718.
